In US5980939A, “Cyclosporin-containing pharmaceutical composition” (Chong Kun Dang Corp., priority 1996, dated 1999):

Assays:
[1] = Experiment 3: permeability of hydrophilic cosurfactant to the gelatin shell, content in soft capsule in course of time; format: physicochemical; conditions: for Change of the content of hydrophilic cosurfactant: solvent:Cremophor RH40 3:7 in soft capsule
Source text: Propylene glycol which contains --OH group in its molecular structure and therefore has high hygroscopic and hydrophilic properties is distributed in the capsule shell according to the movement of water present in the contents and gelatin capsule during encapsulation and drying procedures and therefore, is permeated to the capsule shell in course of time. According to this, since the constitutional ratio of the contents is greately varied at the early stage, of manufacturing procedures of the capsule preparation, the stability of the preparation cannot be ensured and further the reliable therapeutic effect cannot be obtained. […] Hereinafter, the permeability to the gelatin shell of the hydrophilic cosurfactant used in the soft capsule according to the present invention was determined and compared with the shell permeability of propylene glycol, transcutol, glycofurol or dimethylisosorbide used as the hydrophilic cosurfactant in the soft capsule according to the prior art. The content of each solvent in each soft capsule preparation was analyzed by gas chromatography and HPLC. […] At regular intervals, the constant amount of the sample was taken and then analyzed.
Column: Ultra 2; Column temperature: 23° C.; Detector: FID; Detector temperature: 270° C.; Injection temperature: 275° C.; Carrier gas: He; Injection volume: 5 μl; Internal standard: octyl alcohol
Column: 10% PEG 20M; Column temperature: 160° C.; Detector: FID; Injection temperature: 200° C.; Carrier gas: N2; Injection volume: 1 μl; Internal standard: pentadecanoic acid methyl ester
Column: Ultra 2; Column temperature: 230° C.; Detector: FID; Detector temperature: 270° C.; Injection temperature: 270° C.; Carrier gas: He; Injection volume: 5 μl; Internal standard: pentadecanoic acid methyl ester

rat = conditions: per oral; cited from earlier work
[2] = Experiment 1: reactivity of hydrophilic cosurfactant with the gelatin shell by thermoanalyzer (DSC/DDSC); format: physicochemical; conditions: soft gelatin capsule filled with solvent, stored at room temperature, 3 months
Method: Test for the reactivity of the hydrophilic cosurfactant according to the present invention with the gelatin shell in comparison to the reactivity of the solvents used in the prior art using a thermoanalyzer: The reactivities of the hydrophilic cosurfactant used according to the present invention and propylene glycol used as the hydrophilic cosurfactant in the prior preparation with the gelatin shell were determined using a thermoanalyzer. Each of the hydrophilic cosurfactants and mineral oil as the control solvent was filled in the soft gelatin capsule. The filled capsule was stored at room temperature. At regular intervals, the capsules were cut open by a sharp open blade, and the contents were removed by washing with ether and then about 20 mg of gelatin shell was accurately weighed and analyzed. The programed heating rate was 10° C./minute under nitrogen purge from 25 °C. to 300° C.

[3] = species and route not given; cited from earlier work
mouse = conditions: intravenous injection; cited from earlier work

Row | Molecule | Change of the content of hydrophilic cosurfactant ([1]; day 0) | Change of the content of hydrophilic cosurfactant ([1]; day 5) | Change of the content of hydrophilic cosurfactant ([1]; day 15) | Change of the content of hydrophilic cosurfactant ([1]; day 30) | Change of the content of hydrophilic cosurfactant ([1]; day 60) | Change of the content of hydrophilic cosurfactant ([1]; day 90) | Change of the content of hydrophilic cosurfactant ([1]; day 120) | LD50 (rat) | DSC/DDSC pattern of gelatin shell versus shell of capsule filled with mineral oil [2] | stability of the cosurfactant content in soft capsule (in words) [1] | LD50 [3] | LD50 (mouse)
1 | CCOCCOCCO [Transcutol, diethyleneglycol monoethyl ether] | 30.1 wt % | 22.1 wt % | 23.1 wt % | 21.9 wt % | 22.1 wt % | 21.7 wt % | 20.3 wt % | – | – | – | – | –
2 | CC(C)=O [acetone] | – | – | – | – | – | – | – | 10.7 mL/kg | – | – | – | –
3 | CO[C@H]1CO[C@H]2[C@@H]1OC[C@H]2OC [Dimethylisosorbide, 1,4:3,6-dianhydro-2,5-dimethyl-D-glucitol] | 30.0 wt % | 28.2 wt % | 29.1 wt % | 28.7 wt % | 28.0 wt % | 26.6 wt % | 25.8 wt % | 5.63 mL/kg | – | – | – | –
4 | CC(C)O [isopropanol] | – | – | – | – | – | – | – | 5800 mg/kg | – | – | – | –
5 | c1ccccc1 [benzene] | – | – | – | – | – | – | – | 3.8 mL/kg | – | – | – | –
6 | CC(O)CO (stereo not drawn) [Propylene glycol, 1,2-propylene glycol] | 29.9 wt % | 21.9 wt % | 22.8 wt % | 21.0 wt % | 22.4 wt % | 21.5 wt % | 19.5 wt % | 21000 to 33700 mg/kg | shows a new peak | – | – | –
7 | CC#N [acetonitrile] | – | – | – | – | – | – | – | 3800 mg/kg | – | – | – | –
8 | CC1COC(=O)O1 (racemic) [Propylene carbonate, (±)-4-methyl-1,3-dioxolan-2-one] | 30.1 wt % | 29.8 wt % | 28.6 wt % | 28.4 wt % | 28.7 wt % | 27.4 wt % | 28.0 wt % | – | – | at least comparable stability to dimethylisosorbide and is more stable than propylene glycol, transcutol and glycofurol | 29000 mg/kg | –
9 | tetrahydrofurfurylalcohol polyethylene glycol [Glycofurol] | 30.0 wt % | 24.4 wt % | 21.0 wt % | 23.5 wt % | 21.0 wt % | 20.7 wt % | 20.4 wt % | – | – | – | – | 3.5 mL/kg
